In data set [1] the test system is K562 cell lysate depleted of biotinylated proteins. Briefly: Photocatalytic protein labeling with azide-biotin analogs driven by HT178-cpNLuc-179:Ir-9049 in K562 lysate. Format: biochemical. The following applies: for light-independent background: 45 minutes incubation; for light-dependent background: LED 455 nm 10 minutes versus bioluminescence 20 minutes. From the text:
To evaluate labeling efficiency, samples were collected, resolved on SDS-PAGE, transferred to a nitrocellulose membrane, and analyzed as described in Example 1. Unlike diazirene, light independent as well as light-dependent background was apparent for both LED and bioluminescence. […] These longer-lived intermediates can diffuse further before being quenched by water resulting in overall greater labeling radius and increased light-dependent background.
The aryl-azide-biotin analogs were further evaluated for efficiency and specificity of bioluminescence-triggered photocatalytic protein labeling as well as light-independent background (FIG. 21D). […] Samples were then collected, resolved on SDS-PAGE, transferred to a nitrocellulose membrane, and analyzed as described in Example 1. […] In addition, several substitutions to the phenyl ring increased labeling specificity to different extent likely by impeding the generation-kinetics and/or lifetime of the reactive intermediates resulting with an overall smaller labeling radius.
Subsequently, LED-triggered photocatalytic labeling of the proximal HT178-cpNLuc-179 was detected for all three analogs albeit with high light-dependent background. […] In addition, lifetime of photogenerated reactive intermediates resulted with a range of labeling specificities that would be useful for different applications designed to label a specific protein versus a neighboring environment.
The structures of the vinyl-naphthyl-azide-biotins and vinyl-quinoline-azide-biotins are shown in FIG. 26A, and their syntheses are included in Example 13. Absorbance profiles for 200 μM activatable labels in 2% DMSO were monitored on a SPARK multimode plate reader (FIG. 26 B-C). […] The naphthyl-azide analogs were further evaluated for their capacity to undergo bioluminescence-triggered photocatalytic protein labeling as well as for their light-dependent, light-independent, and catalyst-independent backgrounds (FIG. 26D). […] Bioluminescence was induced upon treatment with 100 μM fluorofurimazine for 20 minutes. To evaluate labeling efficiencies, samples were collected, resolved on SDS-PAGE, transferred to nitrocellulose membranes, and analyzed as described in Example 1. […] Furthermore, a methyl substitution on the vinyl group designed to inhibit Michael addition reduced background, especially for 9615, and increased labeling specificity. This reduced background was generally associated with a blue-shifted absorbance relative to the equivalent vinyl-naphthyl-azide analog.

Data set [2] in a line: Absorbance profile of photoreactive-biotins. Format: physicochemical. The procedure: Absorbance profiles for 4 mM phenyl-diazirine-biotin and 20-fold lower concentration of phenyl-azide-biotin (i.e., 200 µM) in 8% or 1% DMSO, respectively, were monitored on a SPARK multimode plate reader (FIG. 20B).
Experiments were conducted during development of embodiments herein to explore structural modifications to the phenyl-azide moiety that could decrease the lifetime of its photogenerated intermediates thereby reducing light-dependent background and increasing labeling specificity. Modifications causing red shift absorbance and subsequently lower triplet state energy thereby enabling more efficient bioluminescence-triggered photocatalytic activation were also explored. […]
The structures of the vinyl-naphthyl-azide-biotins and vinyl-quinoline-azide-biotins are shown in FIG. 26A, and their syntheses are included in Example 13. Absorbance profiles for 200 μM activatable labels in 2% DMSO were monitored on a SPARK multimode plate reader (FIG. 26 B-C). […] The naphthyl-azide analogs were further evaluated for their capacity to undergo bioluminescence-triggered photocatalytic protein labeling as well as for their light-dependent, light-independent, and catalyst-independent backgrounds (FIG. 26D). […] To evaluate labeling efficiencies, samples were collected, resolved on SDS-PAGE, transferred to nitrocellulose membranes, and analyzed as described in Example 1. […]

Another data set relates to DNA and RNA. The experiment in a line: LED-triggered singlet oxygen-dependent labeling of DNA and RNA. Format: biochemical. The following applies: compared to Ir-9049 driven activation of vinyl-naphthyl-azides and vinyl-quinoline-azides.
Data set [3] deals with K562 cell lysate depleted of biotinylated proteins. Briefly: Bioluminescence-triggered photocatalytic protein labeling with diazirine-biotin in K562 lysate. Format: biochemical. The protocol:
The two fusions orientations were further tethered to chloroalkane-catalyst conjugates and compared for their capacity to drive bioluminescence-triggered photocatalytic protein labeling (FIG. 16B). […] Bioluminescence was induced upon treatment with 10× fluorofurimazine at a final concentration of 100 µM while control wells remained untreated. Following a 15 minutes incubation, samples were collected, resolved on SDS-PAGE, transferred to a nitrocellulose membrane, and analyzed as described in Example 1. […]
Reactions comprising 100 μM diazirine-biotin, 0.1 mg/mL K562 cell lysate depleted of biotinylated proteins, and 60 nM conjugate were assembled in TBS pH 7.5 within wells of a white 96-well plate. […] Following a 15 minutes incubation, samples were collected, resolved on SDS-PAGE, transferred to a nitrocellulose membrane, and analyzed as described in Example 1. […]
This example summarizes the optimization of the bioluminescent photocatalytic system that provided an overall 900-fold increase in bioluminescence-triggered photocatalytic protein labeling (FIG. 18). […] Following a 20-minutes incubation, samples were collected, resolved on SDS-PAGE, transferred to a nitrocellulose membrane, and analyzed as described in Example 1 (FIG. 18A). […]

A further data set has as its system FKBP-HiBiT. The experiment in a line: Photocatalytic labeling upon complementation of FKBP-HiBiT with LgBiT-HaloTag:Ir-9049. Format: biochemical. The following applies: HEK293 cell lysate; LED, furimazine or fluorofurimazine. The protocol: HEK293 cell lysate with estimated expression of 2000 nM FKBP-HiBiT was serially diluted into control HEK293 cell lysate to generate 4× lysate solutions with expression levels of 960 nM, 480 nM, 240 nM, and […] while maintaining constant concentration of total proteins. […] Following treatment with 10× diazirine-biotin at a final concentration of […], the UV-transparent plates were subjected to 455 nm radiation at 0-3.2 W for 15 min (Efficiency Aggregators biophotoreactor), and the white plate were further treated for 30 minutes with either furimazine or fluorofurimazine at a final concentration of 100 µM while control wells remained untreated. Samples were then collected, resolved on SDS-PAGE, transferred to a nitrocellulose membrane, and analyzed as described in Example 1. Light-dependent labeling of both LgBiT-HaloTag and FKBP-HiBiT were detected upon radiation or treatment with either furimazine or fluorofurimazine.

Several values for one entry are separate records, joined by “and”; a condition that tells them apart may be missing. Equal values may be shown once.

Experimental for DNA and RNA: Plates remained in the dark (control) or irradiated at 455 nm (2% LED; ˜1.6 W) for 20 minutes using Efficiency Aggregators biophotoreactor. To evaluate covalent crosslinking efficiencies, reactions were cleaned from non-crosslinked activatable labels using Zeba column (ThermoFisher) before being spotted on nitrocellulose membranes using a slot blot apparatus. Membranes were blocked with 5% BSA (Promega) in TBST for 1 hour at room temperature and then incubated overnight at 4° C. with anti-biotin antibody (Invitrogen) in TBST. Next day, membranes were washed three times with TBST and then incubated for an hour with a secondary anti-goat-HRP-antibody (Jackson laboratories). Following three washes in TBST, membranes were treated with ECL substrate (Promega) and scanned on the chemiluminescence channel to detect DNA or RNA labeled with biotin.

As for `[N-]=[N+]=Nc1ccc(C(=O)NCCOCCOCCOCCOCCNC(=O)CCCC[C@@H]2SC[C@@H]3NC(=O)N[C@@H]32)c(O)c1` [Compound 9046], the light-independent background result in data set [1] is “significantly decreased”. Consider `[N-]=[N+]=Nc1ccc2cc(C(=O)NCCOCCOCCOCCOCCNC(=O)CCCC[C@@H]3SC[C@@H]4NC(=O)N[C@@H]43)ccc2c1` [Compound 9043], for which, in data set [2] (200 μM in 2% DMSO), the “absorbance λmax” value is 255 nm and 305 nm. Moreover, the light-independent background result in data set [1] was “significantly decreased”.

Take `[N-]=[N+]=Nc1ccc(C(=O)NCCOCCOCCOCCOCCNC(=O)CCCC[C@@H]2SC[C@@H]3NC(=O)N[C@@H]32)cc1` [Compound 9069]: the “labeling of proximal model protein and background” value in data set [1] (LED or bioluminescence, NanoLuc-HaloTag:Ir-9049 or HT178-cpNLuc-179:Ir-9049) was “relatively high background”.

As for `C/C(=C\C(=O)NCCOCCOCCOCCOCCNC(=O)CCCC[C@@H]1SC[C@@H]2NC(=O)N[C@@H]21)c1ccc(N=[N+]=[N-])c(C#N)c1` [Compound 9422, N-((E)-18-(4-azido-3-cyanophenyl)-16-oxo-3,6,9,12-tetraoxa-15-azanonadec-17-en-1-yl)-5-((3aS,4S,6aR)-2-oxohexahydro-1H-thieno[3,4-d]imidazol-4-yl)pentanamide], in data set [1], the light-independent background entry is given as “significantly decreased” and the light-dependent background entry is “significantly reduced light-dependent background”. `O=C(NCCOCCOCCCCCCCl)OCCOCCOCCOCCNC(=O)c1ccc2c(c1)C(=O)OC21c2ccc(O)c(Br)c2Oc2c1ccc(O)c2Br` [PS-9850]: in the data set on DNA and RNA, the “nucleic acid labeling via singlet oxygen generation” value is reported as “lower efficiencies”. As for `C/C(=C\C(=O)NCCOCCOCCOCCOCCNC(=O)CCCC[C@@H]1SC[C@@H]2NC(=O)N[C@@H]21)c1ccc(N=[N+]=[N-])cc1` [Compound 9162], in data set [2] (aryl-azide analogs compared to phenyl-azide-biotin 9069), the red shift absorbance is given as 20 nm. For the same compound, in data set [1], the light-independent background entry is “significantly decreased” and the light-dependent background entry is “highest light-dependent background”.

In the case of `Nc1cccc(-c2cn3c(=O)c(Cc4ccco4)nc-3c(Cc3ccccc3F)[nH]2)c1F` [fluorofurimazine], the “increase in total light output” value in data set [3] (filtered luminescence 610 nm/LP accumulated over 20 minutes, versus furimazine) is reported as 5 fold. The “increase in protein labeling” value in data set [3] (relative to preceding optimization step, 20 minutes) is listed as 5 fold. Further, the “labeling of LgBiT-HaloTag and FKBP-HiBiT” value in the data set on FKBP-HiBiT is given as “Highest labeling”.

The values are drawn from patent publication US20240191211A1, “BIOLUMINESCENCE-TRIGGERED PHOTOCATALYTIC LABELING” (Promega Corporation, priority 2022, published 2024).
